The values below come from US9527839B2, “Benzimidazole tetrahydropyran derivatives” (Merck Sharp & Dohme Corp., priority 2012, dated 2016).

Test [1] addresses recombinant human AMPK complex 7 (containing α2β1γ1) (Homo sapiens (Human), UniProt P54646+Q9Y478). The experiment in a line: In vitro AMPK activation assay (AMPKSAMSF), complex 7. The class given is biochemical. Conditions: recombinant human AMPK complex 7 (α2β1γ1); for Emax: 10-point titration, read-out: % Maximum AMP Activation of human AMPK Complex 7. Here is the method: (§1) The recombinant human AMPK complex 1 (containing α1β1γ1) or AMPK complex 7 (containing α2β1γ1) was obtained from baculovirus expression system. Recombinant viruses were generated by cotransfection of AMPK/pBacPak9 clones with Baculogold baculovirus DNA (Pharmingen) in spodoptera frugiperda 21 cells according to the manufacturer's instructions. Each round of virus amplification was performed for 5 days in Grace's medium containing 10% serum. Virus that had been subjected to three rounds of amplification was used for all protein production procedures. To express the AMPK complex, sf21 cells were adapted to serum free medium (SF900 II, Invitrogen) by sequential dilution from serum containing stocks into SF900II medium and maintained in shaker flasks at 90 rpm at 27° C. The recombinant AMPK enzyme complex was produced by triple infection, one recombinant virus for each of the subunits, in sf21 cells under serum free conditions. Cells were infected in log phase, 1×10^6 cells/ml, at a multiplicity of infection of 5. Cells were harvested by centrifugation at 10,000×g for 15 minutes after 72 hours of infection with viruses. The insect cell pellet from 2 liters of culture was resuspended in 50 ml lysis buffer (20 mM Tris-HCl, 50 mM NaCl, 50 mM NaF, 30 mM Na PPi, 0.25 M sucrose, 10 mM ZnCl2, 2 mM DTT, 0.4 mg/ml digitonin) and subjected to two cycles of freeze-thaw lysis in a dry-ice ethanol bath. Insoluble material was removed by centrifugation at 10,000×g and the supernatant was fractionated with use of polyethylene glycol (PEG). The protein fraction precipitating between 2.5 and 6% PEG was used for further purification using a Blue-Sepharose step (Zhou et al, J. Clin. Invest. 108, 1167-1174, 2001).
(§2) The in vitro AMPK activation assay is performed in a volume of 30 μl in a 384-well plate. Enzyme reactions were assembled in the microtiter plate by adding 15 μl of 2X enzyme in assay buffer (20 mM HEPES, pH 7.3, 5 mM MgCl2, 3 mM DTT, 0.01% Brij 35 and CamK Kinase, to activate AMPK) to wells which contained either DMSO or compound. The reaction was initiated with the addition of 15 μl 2× substrate mixture containing 200 μM ATP, and 3.0 μM fluorescently labeled SAMS (5-FAM-HMRSAMSGLHLVKRR-COOH) in assay buffer. After 45-minute incubation at 25° C., the reaction was stopped by the addition of 70 μl stop buffer (100 mM HEPES, pH 7.3, 40 mM EDTA, 0.015% Brij 35). Phosphorylated 5-FAM SAMS product is assessed using a Caliper EZ Reader LabChip microfluidics reader. Product conversion is determined by calculating the peak heights of the substrate and product and reporting the product/(product+substrate) peak ratio. The 10-point titration data were expressed as % maximum AMP activation. The results were plotted using 4 parameter fit and the inflection point reflecting 50% of the maximum activation was reported as the EC50.

In the next test the test system is ob/ob and db/db mice. Conditions: following 8 weeks of administration; cited from earlier work.
Test [2] addresses recombinant human AMPK complex 1 (containing α1β1γ1) (Homo sapiens (Human), UniProt Q13131+Q9Y478). The experiment in a line: In vitro AMPK activation assay (AMPKSAMSF), complex 1. The class given is biochemical. Conditions: recombinant human AMPK complex 1 (α1β1γ1); for % Maximum AMP Activation of human AMPK Complex 1: 10-point titration. Here is the method: as §1, §2

recombinant human AMPK complex 7 (containing α2β1γ1), sequence (P54646 whole entry): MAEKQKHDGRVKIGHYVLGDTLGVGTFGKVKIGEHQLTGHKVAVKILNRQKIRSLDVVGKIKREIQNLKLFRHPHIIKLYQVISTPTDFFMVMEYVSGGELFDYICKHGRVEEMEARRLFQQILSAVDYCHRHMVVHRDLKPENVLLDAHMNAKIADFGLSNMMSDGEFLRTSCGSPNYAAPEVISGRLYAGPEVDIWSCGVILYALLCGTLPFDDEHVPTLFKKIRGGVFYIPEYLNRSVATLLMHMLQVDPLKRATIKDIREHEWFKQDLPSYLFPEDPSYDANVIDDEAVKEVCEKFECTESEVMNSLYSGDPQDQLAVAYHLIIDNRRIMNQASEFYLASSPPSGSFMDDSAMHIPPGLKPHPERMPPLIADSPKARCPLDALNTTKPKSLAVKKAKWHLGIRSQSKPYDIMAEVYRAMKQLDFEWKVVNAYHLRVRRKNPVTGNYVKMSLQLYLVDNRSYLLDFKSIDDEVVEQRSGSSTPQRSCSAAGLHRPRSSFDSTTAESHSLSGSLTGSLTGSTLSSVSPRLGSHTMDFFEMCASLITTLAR
recombinant human AMPK complex 7 (containing α2β1γ1), sequence (Q9Y478 whole entry): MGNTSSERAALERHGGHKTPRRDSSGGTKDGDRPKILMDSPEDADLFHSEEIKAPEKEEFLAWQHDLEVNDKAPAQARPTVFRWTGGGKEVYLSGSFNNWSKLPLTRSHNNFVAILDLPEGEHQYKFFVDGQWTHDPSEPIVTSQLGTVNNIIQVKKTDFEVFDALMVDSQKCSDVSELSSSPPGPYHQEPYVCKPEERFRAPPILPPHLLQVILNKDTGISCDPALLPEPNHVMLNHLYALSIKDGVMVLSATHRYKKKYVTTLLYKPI
recombinant human AMPK complex 7 (containing α2β1γ1), sequence (P54619 whole entry partner): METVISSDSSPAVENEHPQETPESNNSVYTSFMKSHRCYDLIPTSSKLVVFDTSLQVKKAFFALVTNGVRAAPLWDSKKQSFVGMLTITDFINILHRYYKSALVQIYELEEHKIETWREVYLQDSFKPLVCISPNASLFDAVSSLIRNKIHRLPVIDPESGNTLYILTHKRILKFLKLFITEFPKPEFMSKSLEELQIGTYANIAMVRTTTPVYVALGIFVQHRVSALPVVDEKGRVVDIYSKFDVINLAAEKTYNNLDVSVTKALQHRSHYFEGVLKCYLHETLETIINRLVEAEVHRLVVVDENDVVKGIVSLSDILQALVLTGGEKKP
recombinant human AMPK complex 1 (containing α1β1γ1), sequence (Q13131 whole entry): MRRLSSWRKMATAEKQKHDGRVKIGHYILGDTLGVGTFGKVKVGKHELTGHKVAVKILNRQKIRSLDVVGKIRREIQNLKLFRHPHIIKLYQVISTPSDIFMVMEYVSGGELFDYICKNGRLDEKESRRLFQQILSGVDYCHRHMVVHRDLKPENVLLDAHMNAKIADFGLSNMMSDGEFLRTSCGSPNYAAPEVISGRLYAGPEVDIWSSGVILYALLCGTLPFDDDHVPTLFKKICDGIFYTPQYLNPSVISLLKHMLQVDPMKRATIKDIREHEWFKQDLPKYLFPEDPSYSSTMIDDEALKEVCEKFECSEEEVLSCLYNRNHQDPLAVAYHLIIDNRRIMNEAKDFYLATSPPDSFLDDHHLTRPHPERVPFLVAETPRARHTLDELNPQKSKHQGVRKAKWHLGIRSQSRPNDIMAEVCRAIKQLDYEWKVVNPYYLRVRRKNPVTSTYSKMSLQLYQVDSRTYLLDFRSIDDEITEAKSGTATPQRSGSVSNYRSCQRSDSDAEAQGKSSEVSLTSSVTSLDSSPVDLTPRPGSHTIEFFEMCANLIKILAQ
recombinant human AMPK complex 1 (containing α1β1γ1), sequence (Q9Y478 whole entry): as the sequence (Q9Y478 whole entry) above
recombinant human AMPK complex 1 (containing α1β1γ1), sequence (P54619 whole entry partner): as the sequence (P54619 whole entry partner) above

By EC50 is commonly meant the midpoint of the concentration-response curve. As for `OC[C@H]1OC[C@H](Oc2nc3c(F)c(-c4ccc(-c5ccc(-c6nnc(O)o6)cc5)cc4)c(F)cc3[nH]2)C[C@@H]1O` [Example 47], in test [1], the EC50 amounted to 7 nM and the Emax came out at 328%.
Consider `CNC(=O)c1ccc(-c2ccc(-c3c(F)cc4[nH]c(O[C@H]5CO[C@H](CO)[C@@H](O)C5)nc4c3F)cc2)cc1` [Example 48], for which, in test [1], the EC50 is 2 nM and the Emax amounted to 414%.
For the compound `OC[C@H]1OC[C@H](Oc2nc3cc(-c4ccc(-c5ccc(C6CNCCO6)cc5)cc4)c(Cl)cc3[nH]2)C[C@@H]1O` (stereo partly drawn) [Example 8], in test [1], the half-maximal effective concentration (EC50) is 12 nM and the Emax was 348%.
`NC(=O)c1ncn([C@@H]2O[C@H](CO)[C@@H](O)[C@H]2O)c1N` [AICAR]: the blood glucose reduction with ob/ob and db/db mice is 35%.
Consider `CS(=O)(=O)c1ccc(-c2ccc(-c3c(F)cc4[nH]c(O[C@H]5CO[C@H](CO)[C@@H](O)C5)nc4c3F)cc2)cc1` [Example 26], for which, in test [2], the half-maximal effective concentration (EC50) amounted to 7 nM and the “% Maximum AMP Activation of human AMPK Complex 1” value (shortened to “% Maximum AMP Activation”) is 558%.
For the compound `O=S(=O)(c1ccc(-c2ccc(-c3c(F)cc4[nH]c(O[C@H]5CO[C@H](CO)[C@@H](O)C5)nc4c3F)cc2)cc1)C1CCNCC1` [Example 42], in test [1], the EC50 came out at 8 nM and the Emax turned out to be 401%.
For `CC(CO)(CO)c1ccc(-c2ccc(-c3cc4nc(O[C@H]5CO[C@H](CO)[C@@H](O)C5)[nH]c4cc3Cl)cc2)cc1` [Example 7], in test [1], the EC50 turned out to be 6 nM and the Emax is 333%.
`O=C1NCCC1c1ccc(-c2ccc(-c3cc4nc(O[C@H]5CO[C@H](CO)[C@@H](O)C5)[nH]c4cc3Cl)cc2)cc1` (stereo partly drawn) [Example 19]: in test [1], the EC50 was 15 nM and the Emax was 392%.
On to `O=S(=O)(c1ccc(-c2ccc(-c3cc4nc(O[C@H]5CO[C@H](CO)[C@@H](O)C5)[nH]c4cc3Cl)cc2)cc1)C1CCNCC1` [Example 18], for which, in test [1], the EC50 worked out at 14 nM and the Emax is 364%.
Take `CS(=O)(=O)Cc1ccc(-c2ccc(-c3cc4nc(O[C@H]5CO[C@H](CO)[C@@H](O)C5)[nH]c4cc3Cl)cc2)cc1` [Example 2]: in test [2], the EC50 stood at 36 nM and the “% Maximum AMP Activation” value is 490%.
Take `OC[C@H]1OC[C@H](Oc2nc3c(F)c(-c4ccc(-c5ccc(-c6nccc(O)n6)cc5)cc4)c(F)cc3[nH]2)C[C@@H]1O` [Example 35]: in test [1], the half-maximal effective concentration (EC50) came out at 3 nM and the Emax worked out at 370%.
`OC[C@H]1OC[C@H](Oc2nc3c(F)c(-c4ccc(-c5ccc(-n6cncn6)cc5)cc4)c(F)cc3[nH]2)C[C@@H]1O` [Example 45]: in test [1], the concentration for a half-maximal effect (EC50) amounted to 2 nM and the Emax is 391%.
The like results for `OC[C@H]1OC[C@H](Oc2nc3cc(-c4ccc(-c5ccc(-c6nccc(O)n6)cc5)cc4)c(Cl)cc3[nH]2)C[C@@H]1O` [Example 6] were, in that order, 7 nM and 373%.
For `O=C1NCCC1c1ccc(-c2ccc(-c3c(F)cc4[nH]c(O[C@H]5CO[C@H](CO)[C@@H](O)C5)nc4c3F)cc2)cc1` (stereo partly drawn) [Example 43], in that order: 4 nM and 398%.
For `OC[C@H]1OC[C@H](Oc2nc3c(F)c(-c4ccc(-c5ccc(C6CNCCO6)cc5)cc4)c(F)cc3[nH]2)C[C@@H]1O` (stereo partly drawn) [Example 36], in that order: 3 nM and 327%.
With `OC[C@H]1OC[C@H](Oc2nc3c(F)c(-c4ccc(-c5ccc(-c6nnn[nH]6)cc5)cc4)c(F)cc3[nH]2)C[C@@H]1O` [Example 49], in test [1], the EC50 is 9 nM and the Emax turned out to be 419%.
For `OC[C@H]1OC[C@H](Oc2nc3c(F)c(-c4ccc(-c5ccc(-c6nccs6)cc5)cc4)c(F)cc3[nH]2)C[C@@H]1O` [Example 39], in that order: 13 nM and 192%.
As to `OC[C@H]1OC[C@H](Oc2nc3cc(-c4ccc(-c5ccc(-n6cncn6)cc5)cc4)c(Cl)cc3[nH]2)C[C@@H]1O` [Example 21], in test [1], the concentration for a half-maximal effect (EC50) worked out at 9 nM and the Emax turned out to be 400%.
For `CC(C)(O)Cc1cnn(-c2ccc(-c3ccc(-c4c(F)cc5[nH]c(O[C@H]6CO[C@H](CO)[C@@H](O)C6)nc5c4F)cc3)cc2)c1` [Example 50], in test [1], the concentration giving a half-maximal response (EC50) came to 7 nM and the Emax stood at 403%.
The like results for `O=C(O)CCCc1ccc(-c2ccc(-c3c(F)cc4[nH]c(O[C@H]5CO[C@H](CO)[C@@H](O)C5)nc4c3F)cc2)cc1` [Example 44] were, in that order, 11 nM and 426%.
`OC[C@H]1OC[C@H](Oc2nc3cc(-c4ccc(-c5ccc(-c6nnn[nH]6)cc5)cc4)c(Cl)cc3[nH]2)C[C@@H]1O` [Example 23]: in test [1], the concentration for a half-maximal effect (EC50) came to 18 nM and the Emax was 387%.
On to `CC(C)(O)Cc1cnn(-c2ccc(-c3ccc(-c4cc5nc(O[C@H]6CO[C@H](CO)[C@@H](O)C6)[nH]c5cc4Cl)cc3)cc2)c1` [Example 24], for which, in test [1], the half-maximal effective concentration (EC50) came to 18 nM and the Emax turned out to be 360%.
Take `CC(C)(O)c1ccc(-c2ccc(-c3c(F)cc4[nH]c(O[C@H]5CO[C@H](CO)[C@@H](O)C5)nc4c3F)cc2)cc1` [Example 29]: in test [2], the half-maximal effective concentration (EC50) amounted to 26 nM and the “% Maximum AMP Activation” value amounted to 492%.
Regarding `N=c1nc(N)[nH]n1-c1ccc(-c2ccc(-c3c(F)cc4[nH]c(O[C@H]5CO[C@H](CO)[C@@H](O)C5)nc4c3F)cc2)cc1` [Example 40], in test [1], the EC50 was 5 nM and the Emax was 387%.
The like results for `N=c1nc(N)[nH]n1-c1ccc(-c2ccc(-c3cc4nc(O[C@H]5CO[C@H](CO)[C@@H](O)C5)[nH]c4cc3Cl)cc2)cc1` [Example 16] were, in that order, 7 nM and 373%.
On to `OC[C@H]1OC[C@H](Oc2nc3c(F)c(-c4ccc(-c5ccc(-c6ncco6)cc5)cc4)c(F)cc3[nH]2)C[C@@H]1O` [Example 38], for which, in test [1], the EC50 came to 17 nM and the Emax was found to be 266%.
